# Results: patent publication US6277867A, “Pesticide compounds, compositions and process for the preparation thereof” (priority 1995, dated 2001)
# Like-named read-outs stand apart in the source and are kept apart here.
# Experiments:
# [1] = test system: two-spotted spider mite (Tetranychus urticae); experiment: Synergism of acaricidal effect on two-spotted spider mite (leaf-disc dip); type: in vivo; details: alone, 48 hours, read-out: Mortality %
# Method: Synergism of Acaricidal Effect Investigated on Two-spotted Spider Mite (Tetranychus urticae)
# (§1) From the first pair of leaves of a 1 week old bean plant leaf-discs of […] diameter were cut which were treated by dipping them (5 min) into the test solution consisting of the active ingredient and the synergist in definite concentrations. For the preparation of the stock solutions of required concentration, 10% acetone as co-solvent and 0.1% Tween-80 as detergent were applied. The dried leaf-discs were placed on wet surface and they were infected with […]-up female mites per leaf. After 48 hours the mortality was recorded using microscope and a brush. The experiment was performed in 4 replica.
# [2] = test system: pea aphid (Acyrthosiphon pisun); experiment: Synergist activity against pea aphid, field trial; type: in vivo; details: dose 240 act. ingr./ha; two days after treatment
# Method: Synergist Activity Against Pea Aphid (Acyrthosiphon pisun)
# Synergist activity of compound No. 599 was tested against pea aphid (Acyrthosiphon pisun) in field trials on small plots (10 m^2). 300 l/ha spray volume was applied using motoric sprayer (Maruyama). Efficacy was expressed by the average number of aphids/leaf before, and two days after the treatment, respectively. (Henderson and Tilton: J. Econ. Entomol., 48:157, 1955).
# [3] = test system: resistant house fly, INSEL strain; experiment: Synergistic activity on resistant house fly, INSEL strain; type: in vivo, Musca domestica
# Method: (§2) Investigation of Synergistic Activity on Resistant House Fly (Musca domestica) Populations
# (§3) Investigation was carried out as described in biological Example 1. LD50 values and synergist ratios were determined as given in Example 2.
# [4] = test system: resistant house fly, IX strain; experiment: Synergistic activity on resistant house fly, IX strain; type: in vivo, Musca domestica
# Method: as §2, §3
# [5] = test system: house fly (Musca domestica); details: in vivo, topical_or_ocular, 1440 min
# Method: Investigation of Synergistic Activity on House Fly (Musca domestica) Following Topical Application
# In two parallel experiments 10 female. 2-4 day old house flies were treated on the vental side of their thorax with 0.2 μl of the test solution, with the help of Hamilton MicroLab P microdispenser. Beside fixed synergist dose of 1000 ng/fly the animals were treated with carbofuran at a dose of 20 ng/fly. For solvent cellosolve was used. Selection and counting of the flies were performed under the action of CO2. After treatment the flies were kept in plastic cups covered with tulle. Mortality after 24 hours was expressed in %.
# [6] = test system: cotton bollworm (Helicoverpa armigera); experiment: Synergistic activity on cotton bollworm following topical application; details: in vivo
# Method: Investigation of Synergistic Activity on Cotton Bollworm (Helicoverpa armigera) Following Topical Application
# Treatment was performed similarity as described in Example 1. but L2 stadium grubs of cotton bollworms (Helicoverpa armigera) were treated as test animals. From the 24 hour dose--mortality data the LD50 (ng/grub) values were determined using probit analysis. None of the synergists acted at the applied 1000 ng/grub dose. Synergist ratio was calculated as the quotient of the LD50 values of carbofuran administered alone, and with the synergist. The experiments were performed in 2-4 replica.
# [7] = test system: house fly (Musca domestica); experiment: Synergist spectrum on house fly, topical; type: in vivo
# Method: (§4) Investigation of Synergist Spectrum on House Fly (Musca domestica) and Cotton Bollworm (Helicoverpa armigera) Following Topical Administration
# (§5) Synerzistic activities of materials No. 279 and 599 of the present invention for various active ingredients were determined on house fly (Musca domestica) and cotton bollworm (Helicoverpa armigera) using methods of treatments as described in biological Examples 1 and 2. For the active ingredients ISO common names are given (see: Pesticide Manual 1994).
# [8] = test system: cotton bollworm (Helicoverpa armigera); experiment: Synergist spectrum on cotton bollworm, topical; type: in vivo
# Method: as §4, §5
# [9] = test system: house fly (Musca domestica); experiment: Effect of the active ingredient:synergist ratio on the synergistic activity (flies)
# Method: Effect of the Active Ingredient:Synergist Ratio on the Synergistic Activity
# Treatment was performed as described in Example 1. using Hamilton MicroLab P microdispenser. In two parallel experiments 10 female -3 day old flies were treated on the ventral side of their thorax with 0.2 μl test solution. Beside 1000-400-200-80 ng/fly fixed doses of the synergist they were treated with constant 20 ng/fly CARBOFURAN®. Selection and counting of the flies were performed under the action of CO2. After treatment the flies were kept in plastic cups covered with tulle. After 24 hours mortality % was recorded. Depending on the results the experiments were performed in 2-4 replica.
# [10] = test system: two-spotted spider mite (Tetranychus urticae); experiment: Synergist activity of compound 599 against two-spotted spider mite; type: in vivo; details: read-out: LC50
# Method: as §1, with “After 48 hours the mortality was recorded using microscope and a brush.” left out
# Synergist activity of compound 599 with various specific acaricides was investigated against two-spotted spider mite (Tetranychus urticae), by the method described in Example 8.
# flies = experiment: Comparative investigations with known reference synergists on flies treated with carbofuran; type: in vivo; details: flies treated with carbofuran and 1000 ng of the synergist
# Description: These SR50 ratios were compared to those of the new compounds prepared by us.
# [11] = test system: house fly (Musca domestica); experiment: Effect on fecundity, on house fly; type: in vivo; details: 500 ppm in granulated sugar, 48 hours feeding; eggs of next 10 days
# Method: Investigation of the Effect on Fecundity, on House Fly (Musca domestica)
# Groups consisting of freshly hatched 50 male and 50 female flies were fed during 48 hours with granulated sugar comprising 500 ppm of material No. 441 and 484 of the present invention respectively, and the eggs layed on the next 10 days were raised. The fecundity-hindering effect was expressed as the quotient of the emerged flies in the treated and untreated groups. The experiments were performed in 4 replica.
# [12] = carbofuran 20 ng/fly + synergist 80 ng/fly
# [13] = carbofuran 20 ng/fly + synergist 200 ng/fly
# [14] = carbofuran 20 ng/fly + synergist 400 ng/fly
# [15] = house fly, in vivo, topical_or_ocular
compound,measurement,setting,value
CC(C)OC(=O)C(O)(c1ccc(Br)cc1)c1ccc(Br)cc1 [BROMOROPYLATE],mortality at 31 ppm,[1],18%
same,mortality at 62 ppm,[1],28%
same,mortality at 125 ppm,[1],90%
N#Cc1nn(-c2c(Cl)cc(C(F)(F)F)cc2Cl)c(N)c1[S+]([O-])C(F)(F)F (stereo not drawn) [FIPRONIL],E (%),[2],94.6%
"CNC(=O)Oc1ccccc1C(C)C [ISOPROCARB, reference compound]",LD50,[3]; active ingredient alone,> 100000 ng/fly
same,LD50,[4]; active ingredient alone,> 100000 ng/fly
CC#CCOC(C)c1ccc(OC)c(OC)c1 (stereo not drawn) [Compound 599],mortality %,[5],100%
same,Synergist ratio,[6],> 5
same,Synergist ratio,[7]; with AMINOCARB,> 20
same,Synergist ratio,[7]; with BENDIOCARB,> 40
same,Synergist ratio,[7]; with CARBOFURAN,> 20
same,Synergist ratio,[7]; with DIOXACARB,> 40
same,Synergist ratio,[7]; with ESBIOL,> 10
same,Synergist ratio,[7]; with FENOBUCARB,> 20
same,Synergist ratio,[7]; with IMIDACLOPRID,> 5
same,Synergist ratio,[7]; with ISOPROCARB,> 40
same,Synergist ratio,[7]; with METHOMYL,> 10
same,Synergist ratio,[7]; with PERMETHRIN,> 5
same,Synergist ratio,[7]; with PIRIMICARB,> 20
same,Synergist ratio,[7]; with PROPOXUR,> 40
same,Synergist ratio,[7]; with TETRAMETHRIN,> 5
same,Synergist ratio,[7]; with THIODICARB,> 10
same,Synergist ratio,[8]; with BENDIOCARB,> 20
same,Synergist ratio,[8]; with CARBOFURAN,> 20
same,Synergist ratio,[8]; with DIOXACARB,> 20
same,Synergist ratio,[8]; with ISOPROCARB,> 20
same,Synergist ratio,[8]; with PERMETHRIN,> 10
same,Synergist ratio,[8]; with PROPOXUR,> 20
same,24 hour mortality (%),[9]; [12],65%
same,24 hour mortality (%),[9]; [13],90%
same,24 hour mortality (%),[9]; [14],95%
same,24 hour mortality (%),[9]; [15],100%
CC(C)(C)c1ccc(CCOc2ncnc3ccccc23)cc1 [FENAZAQUIN],LC50,"[10]; Acaricide/Synergist 1:0, 3 h",> 1000 µg/mL
same,LC50,"[10]; Acaricide/Synergist 1:0, 24 h",41.9 µg/mL
"CC#CCOCc1ccc(OC)c(OC)c1 [Compound 493, (2-Butynyloxy-methyl)-3,4-dimethoxy-benzene]",mortality %,[5],100%
same,Synergist ratio,[6],> 5
same,24 hour mortality (%),[9]; [12],75%
same,24 hour mortality (%),[9]; [13],88%
same,24 hour mortality (%),[9]; [14],94%
same,24 hour mortality (%),[9]; [15],100%
same,Synergist ratio SR50,flies,32.84
"CC#CCOC(c1ccc2c(c1)OCO2)C(C)C (stereo not drawn) [Compound 484, 5-[2-Methyl-1-(2-butynyloxy)-propyl]-1,3-benzodioxole]",mortality %,[5],63%
same,Synergist ratio,[6],> 5
same,Hindering effect on fecundity,[11],90%
"CC#CCOCc1cccc2ccccc12 [Compound 279, 1-naphthyl-methyl 2-butynyl ether]",mortality %,[5],72%
same,Synergist ratio,[6],> 5
same,Synergist ratio,[7]; with AMINOCARB,> 20
same,Synergist ratio,[7]; with AZINPHOSMETHYL,> 5
same,Synergist ratio,[7]; with BENDIOCARB,> 20
same,Synergist ratio,[7]; with CARBOFURAN,> 20
same,Synergist ratio,[7]; with CHLORPYRIPHOS,> 5
same,Synergist ratio,[7]; with DIOXACARB,> 20
same,Synergist ratio,[7]; with ESBIOL,> 5
same,Synergist ratio,[7]; with FENOBUCARB,> 10
same,Synergist ratio,[7]; with IMIDACLOPRID,> 5
same,Synergist ratio,[7]; with ISOPROCARB,> 40
same,Synergist ratio,[7]; with LINDAN,> 5
same,Synergist ratio,[7]; with METHOMYL,> 10
same,Synergist ratio,[7]; with PIRIMICARB,> 20
same,Synergist ratio,[7]; with PROPOXUR,> 20
same,Synergist ratio,[7]; with THIODICARB,> 10
same,Synergist ratio,[8]; with AZINPHOSMETHYL,> 5
same,Synergist ratio,[8]; with BENDIOCARB,> 10
same,Synergist ratio,[8]; with CARBOFURAN,> 10
same,Synergist ratio,[8]; with CHLORPYRIPHOS,> 5
same,Synergist ratio,[8]; with LINDAN,> 5
same,Synergist ratio,[8]; with PROPOXUR,> 10
same,LD50,[3]; ALDICARB + 279,172 ng/fly
same,SR,[3]; ALDICARB + 279,4
same,LD50,[3]; BENDIOCARB + 279,150 ng/fly
same,SR,[3]; BENDIOCARB + 279,667
same,LD50,[3]; CARBOFURAN + 279,29 ng/fly
same,SR,[3]; CARBOFURAN + 279,530
same,LD50,[3]; ESBIOL + 279,794 ng/fly
same,SR,[3]; ESBIOL + 279,13
same,LD50,[3]; ISOPROCARB + 279,983 ng/fly
same,SR,[3]; ISOPROCARB + 279,102
same,LD50,[3]; METHOMYL + 279,46 ng/fly
same,SR,[3]; METHOMYL + 279,10
same,LD50,[3]; PIRIMICARB + 279,696 ng/fly
same,SR,[3]; PIRIMICARB + 279,145
same,LD50,[4]; ALDICARB + 279,507 ng/fly
same,SR,[4]; ALDICARB + 279,4
same,LD50,[4]; BENDIOCARB + 279,746 ng/fly
same,SR,[4]; BENDIOCARB + 279,134
same,LD50,[4]; CARBOFURAN + 279,94 ng/fly
same,SR,[4]; CARBOFURAN + 279,4760
same,LD50,[4]; ISOPROCARB + 279,2145 ng/fly
same,SR,[4]; ISOPROCARB + 279,47
same,LD50,[4]; METHOMYL + 279,109 ng/fly
same,SR,[4]; METHOMYL + 279,5
same,LD50,[4]; PIRIMICARB + 279,3562 ng/fly
same,SR,[4]; PIRIMICARB + 279,115
same,mortality at 31 ppm,[1],0%
same,mortality at 62 ppm,[1],6%
same,mortality at 125 ppm,[1],8%
same,mortality at 250 ppm,[1]; 250 ppm,18%
same,mortality at 500 ppm,[1]; 500 ppm,30%
same,Synergist ratio SR50,flies,28.7
